Values joined by “and” are separate entries in the source; they are usually repeats but may differ in a detail not shown here. Equal entries are not always repeated.
Key:
[1] = molecular target: T1, unphosphorylated VEGF-R2Δ50 (FLVK) (Homo sapiens, UniProt P35968, DEL940-989/E990V); assay: VEGF-R2 coupled spectrophotometric assay, unphosphorylated construct (FLVK); format: biochemical; conditions: for inhibition at 0.05 µM: percent inhibition at 50 nM
T1 construct: VEGF-R2Δ50 contains residues 806-939 and 990-1171; made in house; host or cells: baculovirus/insect cell system
Method in brief: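 Human VEGF-R2Δ50 cytosolic kinase (residues 806-939/990-1171, E990V), baculovirus-expressed, unphosphorylated form. PK/LDH-coupled NADH oxidation at 340 nm with 20 mM poly(E4Y1), 3 mM ATP, 60 mM MgCl2, 2 mM MnCl2, 200 mM HEPES pH 7.5, 5-40 nM enzyme; Ki fitted by Morrison equation.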

[2] = system: human umbilical vein endothelial cells (HUVEC); assay: HUVEC+VEGF proliferation assay; format: cell-based; conditions: VEGF 6 ng/mL, MTT
Method in brief: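 HUVEC (passage 3-4), serum-starved 24 h in F12K + 1% FBS, were pre-treated with compound for 1 h (0.1% DMSO final). They were then stimulated with VEGF at 6 ng/mL final. Proliferation was measured after 72 h by MTT dye reduction (4 h), with absorbance read at 595 nm.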

HUVEC = assay: bFGF HUVEC proliferation; format: cell-based, human; conditions: bFGF stimulated HUVEC
PDGFRβ = molecular target: T2, PDGFRβ (Homo sapiens, UniProt P09619); assay: PAE-PDGFRβ phosphorylation in PAE-PDGFRB cells assay; format: cell-based; conditions: PAE cells overexpressing human PDGFRβ, PDGF-BB stimulated; read-out: PAE PDGFR autophos IC50
T2 construct: expressed in transfected cells; host or cells: porcine aorta endothelial (PAE) cells
Method in brief: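 PAE cells overexpressing human PDGFRβ, serum-starved 16 h (0.1% FBS), compound 1 h at 37° C (0.5% DMSO), then 1 μg/mL PDGF-BB with 2 mM Na3VO4 for 8 min. Receptor captured by anti-PDGFRβ, phosphotyrosine detected by HRP-PY20/TMB at 450 nm; IC50 by four-parameter fit.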

Mouse PK assay = format: in vivo, B6 female mice; conditions: po
Method: The pharmacokinetics (e.g., absorption and elimination) of drugs in mice were analyzed using the following experiment. Test compounds were formulated as a suspension in a 30:70 (PEG 400: acidified H2O) vehicle. This solution was administered orally (p.o.) and intraperitoneally (i.p.) at 50 mg/kg to two distinct groups (n=4) of B6 female mice. Blood samples were collected via an orbital bleed at time points: 0 hour (pre-dose), 0.5 hr, 1.0 hr, 2.0 hr, and 4.0 hr post dose. Plasma was obtained from each sample by centrifugation at 2500 rpm for 5 min. Test compound was extracted from the plasma by an organic protein precipitation method. For each time bleed, 50 μL of plasma was combined with 1.0 mL of acetonitrile, vortexed for 2 min. and then spun at 4000 rpm for 15 min. to precipitate the protein and extract out the test compound. Next, the acetonitrile supernatant (the extract containing test compound) was poured into new test tubes and evaporated on a hot plate (25° C.) under a steam of N2 gas. To each tube containing the dried test compound extract, 125 μL of mobile phase (60:40, 0.025 M NH4H2PO4+2.5 mL/L TEA:acetonitrile) was added. The test compound was resuspended in the mobile phase by vortexing and more protein was removed by centrifugation at 4000 rpm for 5 min. Each sample was poured into an HPLC vial for test compound analysis on an Hewlett Packard 1100 series HPLC with UV detection. From each sample, 95 μL was injected onto a Phenomenex-Prodigy reverse phase C-18, 150×3.2 mm column and eluted with a 45-50% acetonitrile gradient run over 10 min. Test-compound plasma concentrations (μg/mL) were determined by a comparison to standard curve (peak area vs. conc. μg/mL) using known concentrations of test compound extracted from plasma samples in the manner described above. Along with the standards and unknowns, three groups (n=4) of quality controls (0.25 μg/mL, 1.5 μg/mL, and 7.5 μg/mL) were run to insure the consistency of the analysis. […] The quantitated test samples were plotted for visual display using Kaleidagraph software and their pharmacokinetic parameters were determined using WIN NONLIN software.

KDR (VEGFR2) = molecular target: T3, KDR (VEGFR2) (Homo sapiens, UniProt P35968); assay: KDR (VEGFR2) phosphorylation in PAE-KDR cells assay; format: cell-based; conditions: PAE cells overexpressing human KDR, VEGF stimulated; read-out: PAE KDR autophos IC50
T3 construct: expressed in transfected cells; host or cells: porcine aorta endothelial (PAE) cells
Method: This assay determines the ability of a test compound to inhibit the autophosphorylation of KDR in porcine aorta endothelial (PAE)-KDR cells. PAE cells that overexpress human KDR were used in this assay. The cells were cultured in Ham's F12 media supplemented with 10% fetal bovine serum (FBS) and 400 ug/mL G418. Thirty thousands cells were seeded into each well of a 96-well plate in 75 μL of growth media and allowed to attach for 6 hours at 37° C. Cells were then exposed to the starvation media (Ham's F12 media supplemented with 0.1% FBS) for 16 hours. After the starvation period was over, 10 μL of test agent in 5% DMSO in starvation media were added to the test wells and 10 μL of the vehicle (5% DMSO in starvation media) were added into the control wells. The final DMSO concentration in each well was 0.5%. Plates were incubated at 37° C. for 1 hour and the cells were then stimulated with 500 ng/ml VEGF (commercially available from R & D System) in the presence of 2 mM Na3VO4 for 8 minutes. The cells were washed once with 1 mm Na3VO4 in HBSS and lysed by adding 50 μL per well of lysis buffer. One hundred μL of dilution buffer were then added to each well and the diluted cell lysate was transferred to a 96-well goat ant-rabbit coated plate (commercially available from Pierce) which was pre-coated with Rabbit anti Human Anti-flk-1 C-20 antibody (commercially available from Santa Cruz). The plates were incubated at room temperature for 2 hours and washed seven times with 1% Tween 20 in PBS. HRP-PY20 (commercially available from Santa Cruz) was diluted and added to the plate for a 30-minute incubation. Plates were then washed again and TMB peroxidase substrate (commercially available from Kirkegaard & Perry) was added for a 10-minute incubation. One hundred μL of 0.09 N H2SO4 was added to each well of the 96-well plates to stop the reaction. Phosphorylation status was assessed by spectrophotometer reading at 450 nm. IC50 values were calculated by curve fitting using a four-parameter analysis.

T3 sequence (P35968 20-1356): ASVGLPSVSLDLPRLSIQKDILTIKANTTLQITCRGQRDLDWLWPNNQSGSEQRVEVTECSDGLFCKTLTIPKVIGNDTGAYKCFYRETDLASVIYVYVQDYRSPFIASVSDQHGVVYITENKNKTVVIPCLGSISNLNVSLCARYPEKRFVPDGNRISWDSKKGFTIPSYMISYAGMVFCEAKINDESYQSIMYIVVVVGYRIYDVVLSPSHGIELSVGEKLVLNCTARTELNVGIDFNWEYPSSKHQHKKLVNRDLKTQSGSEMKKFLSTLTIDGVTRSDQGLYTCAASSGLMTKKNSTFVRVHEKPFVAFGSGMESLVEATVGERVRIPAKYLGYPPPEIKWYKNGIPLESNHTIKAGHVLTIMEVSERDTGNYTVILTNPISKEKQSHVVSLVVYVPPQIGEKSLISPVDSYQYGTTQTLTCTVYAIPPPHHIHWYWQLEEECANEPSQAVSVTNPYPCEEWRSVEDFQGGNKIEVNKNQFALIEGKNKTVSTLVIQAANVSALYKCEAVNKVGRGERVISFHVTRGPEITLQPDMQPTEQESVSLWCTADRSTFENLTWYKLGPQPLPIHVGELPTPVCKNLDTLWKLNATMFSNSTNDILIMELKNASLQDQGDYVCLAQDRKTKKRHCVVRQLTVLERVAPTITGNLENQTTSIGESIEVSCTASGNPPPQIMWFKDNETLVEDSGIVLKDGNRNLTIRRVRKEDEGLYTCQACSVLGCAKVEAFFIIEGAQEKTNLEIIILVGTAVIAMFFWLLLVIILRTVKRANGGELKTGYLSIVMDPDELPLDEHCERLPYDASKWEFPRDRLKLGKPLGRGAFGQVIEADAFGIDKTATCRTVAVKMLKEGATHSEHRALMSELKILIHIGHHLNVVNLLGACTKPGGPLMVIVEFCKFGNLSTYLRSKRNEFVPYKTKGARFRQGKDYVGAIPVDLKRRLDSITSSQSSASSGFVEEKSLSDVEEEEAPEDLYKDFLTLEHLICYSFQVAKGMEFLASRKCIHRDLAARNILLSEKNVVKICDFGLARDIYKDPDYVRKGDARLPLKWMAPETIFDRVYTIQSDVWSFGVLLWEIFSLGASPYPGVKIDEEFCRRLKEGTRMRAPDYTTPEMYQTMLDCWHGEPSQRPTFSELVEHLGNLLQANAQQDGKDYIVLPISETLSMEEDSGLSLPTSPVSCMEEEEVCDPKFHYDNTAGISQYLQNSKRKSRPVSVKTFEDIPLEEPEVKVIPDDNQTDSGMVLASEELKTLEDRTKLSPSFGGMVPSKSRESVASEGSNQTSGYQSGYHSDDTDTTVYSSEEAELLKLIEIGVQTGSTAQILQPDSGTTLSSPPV
T2 sequence (P09619 33-1106): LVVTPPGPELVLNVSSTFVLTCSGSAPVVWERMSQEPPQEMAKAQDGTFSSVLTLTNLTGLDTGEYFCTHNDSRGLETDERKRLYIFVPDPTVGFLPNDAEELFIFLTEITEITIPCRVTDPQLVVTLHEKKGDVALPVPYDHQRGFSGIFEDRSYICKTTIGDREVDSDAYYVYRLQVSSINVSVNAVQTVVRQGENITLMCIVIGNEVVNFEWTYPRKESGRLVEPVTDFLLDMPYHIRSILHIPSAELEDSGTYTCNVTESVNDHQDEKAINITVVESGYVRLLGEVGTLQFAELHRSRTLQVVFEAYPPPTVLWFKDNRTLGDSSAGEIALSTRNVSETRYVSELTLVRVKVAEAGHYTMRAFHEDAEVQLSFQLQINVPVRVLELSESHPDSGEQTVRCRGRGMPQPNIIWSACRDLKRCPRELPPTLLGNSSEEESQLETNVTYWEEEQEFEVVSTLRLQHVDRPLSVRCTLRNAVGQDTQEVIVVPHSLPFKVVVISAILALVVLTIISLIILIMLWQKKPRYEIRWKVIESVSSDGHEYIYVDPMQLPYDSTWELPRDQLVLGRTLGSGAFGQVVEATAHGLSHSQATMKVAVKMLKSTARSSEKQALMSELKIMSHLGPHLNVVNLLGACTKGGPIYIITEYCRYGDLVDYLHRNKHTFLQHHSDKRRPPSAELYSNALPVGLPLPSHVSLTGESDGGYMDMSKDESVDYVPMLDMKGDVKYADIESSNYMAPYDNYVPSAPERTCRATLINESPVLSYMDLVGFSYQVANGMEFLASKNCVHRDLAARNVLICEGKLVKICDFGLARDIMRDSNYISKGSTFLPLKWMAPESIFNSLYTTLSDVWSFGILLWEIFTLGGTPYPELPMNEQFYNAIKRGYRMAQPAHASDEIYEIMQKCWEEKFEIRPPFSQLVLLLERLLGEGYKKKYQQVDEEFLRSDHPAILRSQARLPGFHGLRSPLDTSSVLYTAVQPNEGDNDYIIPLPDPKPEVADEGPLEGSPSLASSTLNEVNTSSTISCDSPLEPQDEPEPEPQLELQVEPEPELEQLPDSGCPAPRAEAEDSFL
T1 sequence (P35968 with tags, fused parts or gaps DEL940-989/E990V limits assumed): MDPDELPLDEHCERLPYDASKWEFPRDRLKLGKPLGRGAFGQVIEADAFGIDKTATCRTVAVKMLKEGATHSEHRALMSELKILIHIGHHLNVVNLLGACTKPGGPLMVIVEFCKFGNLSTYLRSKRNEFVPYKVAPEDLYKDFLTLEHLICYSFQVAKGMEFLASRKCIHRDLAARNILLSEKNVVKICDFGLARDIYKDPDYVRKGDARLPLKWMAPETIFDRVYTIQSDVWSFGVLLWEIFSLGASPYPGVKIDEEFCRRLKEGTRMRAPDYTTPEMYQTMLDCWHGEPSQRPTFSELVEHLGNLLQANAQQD

Ki [1] [nM]	inhibition at 0.05 µM [1] [%]	IC50 (PDGFRβ)	AUC (Mouse PK assay; female, B6, mouse, plasma, 50 mg/kg) [ng·h/mL]	Cmax (Mouse PK assay; female, B6, mouse, plasma, 50 mg/kg, p.o., 50 mg/kg, read-out: Mouse Cmax, po ng-h/mL) [ng/mL]	Mouse Cmin, po (Mouse PK assay) [ng/mL]	IC50 (KDR (VEGFR2))	Compound	IC50 ([2]; Homo sapiens, HUVEC, 72 h) [nM]	IC50 (HUVEC; Homo sapiens, HUVEC) [nM]	IC50 ([2]; 72 hours) [nM]	IC50 (HUVEC) [nM]
0.143	98	13 nM					C#CCNC(=O)n1c(C)cc2cc(Oc3ccnc4cc(C(=O)N5CCC[C@@H]5COC)sc34)ccc21 [Example 8p, 5-[2-(2R-Methoxymethyl-pyrrolidine-1-carbonyl)-thieno[3,2-b]pyridin-7-yloxy]-2-methyl-indole-1-carboxylic acid prop-2-ynylamide]	0.137	197		
4.47	74						CNC(=O)n1c(C)cc2cc(Oc3ccnc4cc(C(=O)N5CC(O)C5)sc34)ccc21 [Example 8o, 5-[2-(3-Hydroxy-azetidine-1-carbonyl)-thieno[3,2-b]pyridin-7-yloxy]-2-methyl-indole-1-carboxylic acid methylamide]	1.25	61		
0.868	95						CO[C@H]1CN(C(=O)c2cc3nccc(Oc4ccc5c(c4)cc(C)n5C(=O)NCCO)c3s2)CC1F (stereo partly drawn) [Example 8k, 5-[(2-{[(4S)-3-Fluoro-4-methoxypyrrolidin-1-yl]carbonyl}thieno[3,2b]pyridin-7-yl)oxy]-N-(2-hydroxyethyl)-2-methyl-1H-indole-1-carboxamide]	0.32	18		
0.089	97	10.2 nM					Cc1cc2cc(Oc3ccnc4cc(C(=O)N5CCC5)sc34)ccc2n1C(=O)NCCCO [Example 8n, 5-[2-(Azetidine-1-carbonyl)-thieno[3,2-b]pyridin-7-yloxy]-2-methyl-indole-1-carboxylic acid (3-hydroxy-propyl)-amide]		58		

Further lines, the compound ahead of its results:

Compound	Ki [1] [nM]	inhibition at 0.05 µM [1] [%]	IC50 (PDGFRβ)	AUC (Mouse PK assay; female, B6, mouse, plasma, 50 mg/kg) [ng·h/mL]	Cmax (Mouse PK assay; female, B6, mouse, plasma, 50 mg/kg, p.o., 50 mg/kg, read-out: Mouse Cmax, po ng-h/mL) [ng/mL]	Mouse Cmin, po (Mouse PK assay) [ng/mL]	IC50 (KDR (VEGFR2))	IC50 ([2]; Homo sapiens, HUVEC, 72 h) [nM]	IC50 (HUVEC; Homo sapiens, HUVEC) [nM]	IC50 ([2]; 72 hours) [nM]	IC50 (HUVEC) [nM]
COC[C@@H]1C[C@@H](O)CN1C(=O)c1cc2nccc(Nc3ccc4c(c3)cc(C)n4C(=O)NC3CC3)c2s1 [Example 3h]	1.19	95						1.94	225		
CNC(=O)n1ccc2cc(Oc3ccnc4cc(-c5nc(C(C)(C)O)cs5)sc34)ccc21 [Example 31, 5-{2-[4-(1-Hydroxy-1-methyl-ethyl)-thiazol-2-yl]-thieno[3,2-b]pyridin-7-yloxy}-indole-1-carboxylic acid methylamide]	0.462	97	8.1 nM and 6.3 nM					0.16	101		
5-[2-(3S-Methoxy-pyrrolidine-1-carbonyl)-thieno[3,2-b]pyridin-7-ylamino]-2-methyl-2,3-dihydro-indole-1-carboxylic acid methylamide [Example 1u]			> 100 nM							> 10	4840
CNC(=O)n1c(C)cc2cc(Oc3ccnc4cc(C(=O)N5CC(F)(F)C[C@H]5CO)sc34)ccc21 [Example 3p, 5-[2-(4,4-Difluoro-2-hydroxymethyl-pyrrolidine-1-carbonyl)-thieno[3,2-b]pyridin-7-yloxy]-2-methyl-indole-1-carboxylic acid methyl-amide]	0.98	81	212 nM					0.33	227		
CNC(=O)n1c(C)cc2cc(Oc3ccnc4cc(C(=O)N(C)CCO)sc34)ccc21 [Example 3n, 7-(2-Methyl-1-methylcarbamoyl-1H-indol-5-yloxy)-thieno[3,2-b]pyridine-2-carboxylic acid (2-hydroxy-ethyl)-methyl-amide]	0.505	88	76.3 nM					0.267	87		
CNC(=O)n1c(C)cc2cc(Nc3ccnc4cc(C(=O)N5CC[C@H](O)C5)sc34)ccc21 [Example 1i, 5-[2-(3S-Hydroxy-pyrrolidine-1-carbonyl)-thieno[3,2-b]pyridin-7-ylamino]-2-methyl-indole-1-carboxylic acid methylamide]	0.69	93	~1000 nM					1.03	44.2		
C#CCNC(=O)n1c(C)cc2cc(Nc3ccnc4cc(C(=O)N5CC[C@@H](OC)C5)sc34)ccc21 [Example 1p, 5-[2-(3R-Methoxy-pyrrolidine-1-carbonyl)-thieno[3,2-b]pyridin-7-ylamino]-2-methyl-indole-1-carboxylic acid prop-2-ynylamide]	0.2	93	56 nM	2530	1230	34			119		
CO[C@H]1CN(C(=O)c2cc3nccc(Nc4ccc5c(c4)cc(C)n5C(=O)NC4CC4)c3s2)C[C@@H]1OC [Example 1s, 5-[2-(3S,4S-Dimethoxy-pyrrolidine-1-carbonyl)-thieno[3,2-b]pyridin-7-ylamino]-2-methyl-indole-1-carboxylic acid cyclopropylamide]	1.1	98	165 nM and 98 nM				0.42 nM and 0.7 nM	0.308			
CO[C@H]1CCN(C(=O)c2cc3nccc(Oc4ccc5c(cc(C)n5C(=O)NC5CC5)c4F)c3s2)C1 [Example 5h, 4-Fluoro-5-[2-(3S-methoxy-pyrrolidine-1-carbonyl)-thieno[3,2-b]pyridin-7-yloxy]-2-methyl-indole-1-carboxylic acid cyclopropylamide]	0.52	98	9.9 nM				0.29 nM	0.28			
C#CCNC(=O)n1c(C)cc2cc(Nc3ccnc4cc(C(=O)N5CCC[C@@H]5CO)sc34)ccc21 [Example 1e, 5-[2-(2R-Hydroxymethyl-pyrrolidine-1-carbonyl)-thieno[3,2-b]pyridin-7-ylamino]-2-methyl-indole-1-carboxylic acid prop-2-ynylamide]	0.51	97	11.3 nM				0.73 nM and 0.41 nM	0.18			

Reference: US6833456B2, “Indolyl-urea derivatives of thienopyridines useful as antiangiogenic agents, and methods for their use” (Agouron Pharmaceuticals, Inc., priority 2002, dated 2004)
